Assay results published in patent US20250171451A1, “NOVEL HETEROCYCLIC COMPOUND AND PHARMACEUTICAL COMPOSITION COMPRISING SAME” (Samjin Pharmaceutical Co., Ltd., priority 2022, published 2025).

Assays:
[1] = system: TEAD response element (TRE) luciferase reporter in MCF-7 cell lines; assay: TEAD response element (TRE) reporter assay; assay type: cell-based; conditions: Homo sapiens, MCF7; 0.2 μM compound, 24 hours, MCF-7 TEAD reporter cells, relative to vehicle (1% DMSO)
Description: MCF-7 cell lines injected with TEAD reporter genes expressing firefly luciferase upon activation of TEAD response element (TRE) were obtained from BPS bioscience (#60618). The TEAD reporter genes were injected to stable expression in the MCF-7 cell lines.
TEAD reporter genes expressing firefly luciferase upon activation of TEAD response element (TRE) were injected with TEAD reporter genes to ensure stable expression of the TEAD reporter genes. Here, the TEAD reporter genes expresses firefly luciferase upon activation of TEAD response element (TRE). The cells were cultured in a cell-only culture medium (BPS bioscience) to which 10 μg/mL insulin (Sigma) was added at 37° C. and 5% CO2.
In 24 hours after dispensing said cells into a 96-well plate, each of the compounds of the examples or a vehicle solvent (final 1% DMSO) was treated by being diluted with a serum-free culture medium so that the final concentration became 0.2 μM. In 24 hours after said treatment, a luciferase assay working solution (ONE-Step Luciferase assay reagent; BPS bioscience) containing a luciferase substrate was treated in each well at 100 μL, and then left in a shaker for 15 minutes to be well mixed. Then, a degree of luminescence generated by luciferase expressed according to TEAD activation was measured by a microplate reader (TECAN). A relative activity of luciferase […], and the results are shown in table 8 below.

[2] = target: T1, recombinant GST-TEAD1 proteins (209 to 426 a.a.) (Homo sapiens, UniProt P28347); assay: Evaluation of palmitoylation of TEAD protein; assay type: biochemical; conditions: 5 μM compound, 15 minutes preincubation, 3 μM alkyne palmitoyl-CoA 30 minutes, pH 6.4, vs DMSO control
T1 construct: recombinant GST-TEAD1 proteins (209 to 426 a.a.)
T1 sequence (P28347 209-426): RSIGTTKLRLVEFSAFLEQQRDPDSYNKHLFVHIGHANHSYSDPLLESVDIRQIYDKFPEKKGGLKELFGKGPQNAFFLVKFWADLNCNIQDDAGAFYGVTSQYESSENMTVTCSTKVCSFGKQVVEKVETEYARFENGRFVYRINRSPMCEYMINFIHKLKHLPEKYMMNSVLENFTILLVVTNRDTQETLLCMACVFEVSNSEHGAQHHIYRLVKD
Description: Each compound corresponding to a concentration of 5 μM was added to recombinant GST-TEAD1 proteins (209 to 426 a.a.) and cultured for 15 minutes. For an autopalmitoylation reaction of proteins after culturing, 3 μM alkyne palmitoyl-CoA (Cayman chemical) and 50 mM MES buffer (pH 6.4) were added and cultured for 30 minutes, after which 1% of sodium dodecyl sulfate (SDS) was added to stop the reaction. After that, biotinylation was performed through a CLICK (Click chemistry tools) reaction, and then a protein solution was concentrated to prepare a sample.
Analysis of the sample was performed using SDS-PAGE and streptavidin HRP (Thermo scientific). The resulting values were quantified using an Image J (NIH). For the intensity of the band obtained from Streptavidin blot, a palmitoylation inhibitory activity was analyzed based on the control group (DMSO). The normalization of each sample was performed using an anti-GST (91G1) (cell signaling) antibody.

SMILES	inhibition at 0.2 µM [1] [%]	inhibition at 5 µM [2] [%]
C=CS(=O)(=O)Nc1cnc2ncn(-c3ccc(C4CCCCC4)cc3)c2c1 [Compound 1, N-(1-(4-cyclohexylphenyl)-1H-imidazo[4,5-b]pyridin-6-yl)ethenesulfonamide]	< 30	–
C=CC(=O)Nc1cnc2ncn(-c3ccc(C4CCCCC4)cc3)c2c1 [Compound 2, N-(1-(4-cyclohexylphenyl)-1H-imidazo[4,5-b]pyridin-6-yl)acrylamide]	< 30	–
C=CC(=O)Nc1cnc2c(ccn2Cc2ccc(C(F)(F)F)cc2)c1 [Compound 4, N-(1-(4-(trifluoromethyl)benzyl)-1H-pyrrolo[2,3-b]pyridin-5-yl)acrylamide]	30 to 50	40 to 80
C=CC(=O)Nc1ccc2c(cnn2Cc2ccc(C(F)(F)F)cc2)c1 [Compound 6, N-(1-(4-(trifluoromethyl)benzyl)-1H-indazol-5-yl)acrylamide]	30 to 50	> 80
C=CC(=O)Nc1ccc2c(c1)CCN2Cc1ccc(C(F)(F)F)cc1 [Compound 7, N-(1-(4-(trifluoromethyl)benzyl)indolin-5-yl)acrylamide]	> 50	> 80
C=CC(=O)Nc1cnc2c(cnn2CC2CCCC2)c1 [Compound 8, N-(1-(cyclopentylmethyl)-1H-pyrazolo[3,4-b]pyridin-5-yl)acrylamide]	30 to 50	40 to 80
C=CC(=O)Nc1cnc2c(c1)c(C)cn2CC1CCCC1 [Compound 9, N-(1-(cyclopentylmethyl)-3-methyl-1H-pyrrolo[2,3-b]pyridin-5-yl)acrylamide]	> 50	> 80
C=CC(=O)Nc1cnc2c(c1)c(C)cn2CC1CCC(F)(F)CC1 [Compound 10, N-(1-((4,4-difluorocyclohexyl)methyl)-3-methyl-1H-pyrrolo[2,3-b]pyridin-5-yl)acrylamide]	> 50	> 80
C=CC(=O)Nc1cnc2c(cnn2CC2CCC(F)(F)CC2)c1 [Compound 11, N-(1-((4,4-difluorocyclohexyl)methyl)-1H-pyrazolo[3,4-b]pyridin-5-yl)acrylamide]	30 to 50	40 to 80
C=CC(=O)Nc1cnc2c(cnn2CCCOC(F)(F)F)c1 [Compound 12, N-(1-(3-(trifluoromethoxy)propyl)-1H-pyrazolo[3,4-b]pyridin-5-yl)acrylamide]	< 30	< 40
C=CC(=O)Nc1cnc2c(c1)c(C)nn2Cc1ccc(C(F)(F)F)cc1 [Compound 13, N-(3-methyl-1-(4-(trifluoromethyl)benzyl)-1H-pyrazolo[3,4-b]pyridin-5-yl)acrylamide]	30 to 50	> 80
C=CC(=O)Nc1cnc2c(c1)c(C)nn2CC1CCC(F)(F)CC1 [Compound 14, N-(1-((4,4-difluorocyclohexyl)methyl)-3-methyl-1H-pyrazolo[3,4-b]pyridin-5-yl)acrylamide]	> 50	40 to 80
C=CC(=O)Nc1cnc2c(ccn2Cc2ccc(C(F)(F)F)cc2)n1 [Compound 15, N-(5-(4-(trifluoromethyl)benzyl)-5H-pyrrolo[2,3-b]pyrazin-2-yl)acrylamide]	> 50	> 80
C=CC(=O)Nc1cnc2c(cnn2Cc2ccc(C(F)(F)F)cc2)n1 [Compound 16, N-(1-(4-(trifluoromethyl)benzyl)-1H-pyrazolo[3,4-b]pyrazin-5-yl)acrylamide]	> 50	< 40
C=CC(=O)Nc1ccc2cnn(Cc3ccc(C(F)(F)F)cc3)c2c1 [Compound 17, N-(1-(4-(trifluoromethyl)benzyl)-1H-indazol-6-yl)acrylamide]	30 to 50	40 to 80
C=CC(=O)Nc1cnc2c(ccn2Cc2ccc(C(F)(F)F)cc2)c1OC [Compound 18, N-(4-methoxy-1-(4-(trifluoromethyl)benzyl)-1H-pyrrolo[2,3-b]pyridin-5-yl)acrylamide]	30 to 50	> 80
C=CC(=O)Nc1ncc2cnn(Cc3ccc(C(F)(F)F)cc3)c2n1 [Compound 19, N-(1-(4-(trifluoromethyl)benzyl)-1H-pyrazolo[3,4-d]pyrimidin-6-yl)acrylamide]	< 30	< 40
C=CC(=O)Nc1ncc2c(C)nn(Cc3ccc(C(F)(F)F)cc3)c2n1 [Compound 20, N-(3-methyl-1-(4-(trifluoromethyl)benzyl)-1H-pyrazolo[3,4-d]pyrimidin-6-yl)acrylamide]	< 30	< 40
CC=CC(=O)Nc1cnc2c(c1)c(C)cn2Cc1ccc(C(F)(F)F)cc1 [Compound 21, N-(3-methyl-1-(4-(trifluoromethyl)benzyl)-1H-pyrrolo[2,3-b]pyridin-5-yl)but-2-enamide]	< 30	< 40
C=CC(=O)Nc1ncc2c(cnn2Cc2ccc(C(F)(F)F)cc2)n1 [Compound 22, N-(1-(4-(trifluoromethyl)benzyl)-1H-pyrazolo[4,3-d]pyrimidin-5-yl)acrylamide]	< 30	< 40
CC=CC(=O)Nc1cnc2c(c1)c(C)cn2CCCC [Compound 23, N-(1-butyl-3-methyl-1H-pyrrolo[2,3-b]pyridin-5-yl)but-2-enamide]	< 30	< 40
C=CC(=O)Nc1cnc2c(c1)c(C)cn2C(=O)c1ccc(C(F)(F)F)cc1 [Compound 24, N-(3-methyl-1-(4-(trifluoromethyl)benzoyl)-1H-pyrrolo[2,3-b]pyridin-5-yl)acrylamide]	< 30	> 80
Cc1cn(Cc2ccc(C(F)(F)F)cc2)c2ncc(NC(=O)C(C)C)cc12 [Compound 25, N-(3-methyl-1-(4-(trifluoromethyl)benzyl)-1H-pyrrolo[2,3-b]pyridin-5-yl)isobutyramide]	< 30	40 to 80
C=CC(=O)Nc1cnc2c(c1)c(C)cn2CCC(C)C [Compound 26, N-(1-isopentyl-3-methyl-1H-pyrrolo[2,3-b]pyridin-5-yl)acrylamide]	30 to 50	> 80
C=CC(=O)Nc1cnc2c(n1)c(C)cn2Cc1ccc(C(F)(F)F)cc1 [Compound 28, N-(7-methyl-5-(4-(trifluoromethyl)benzyl)-5H-pyrrolo[2,3-b]pyrazin-2-yl)acrylamide]	> 50	> 80
C=CC(=O)Nc1cc2ccn(Cc3ccc(C(F)(F)F)cc3)c2cn1 [Compound 29, N-(1-(4-(trifluoromethyl)benzyl)-1H-pyrrolo[2,3-c]pyridin-5-yl)acrylamide]	< 30	40 to 80
C=CC(=O)Nc1cnc2ncn(Cc3ccc(C(F)(F)F)cc3)c2c1 [Compound 30, N-(1-(4-(trifluoromethyl)benzyl)-1H-imidazo[4,5-b]pyridin-6-yl)acrylamide]	< 30	40 to 80
C=CC(=O)Nc1cnc2c(n1)c(C)nn2Cc1ccc(C(F)(F)F)cc1 [Compound 31, N-(3-methyl-1-(4-(trifluoromethyl)benzyl)-1H-pyrazolo[3,4-b]pyrazin-5-yl)acrylamide]	> 50	40 to 80
